US20260365695A1, “NOVEL PEPTIDE EXHIBITING SKIN CONDITION IMPROVEMENT ACTIVITY AND COSMETIC COMPOSITION CONTAINING SAME” (DAEBONG LS CO., LTD., priority 2023, published 2026)
Where a SMILES comes first, the peptide text is derived from it.

How the values were obtained:
[1] = test system: procollagen type I peptide production; experiment: Procollagen Type I Peptide (PIP) production in NHDF cells (EIA); assay type: cell-based, Human
Experimental: Normal Human Dermal Fibroblasts (NHDF) were obtained from Lonza (Lonza Walkersville, Inc.) and cultured in FBM (Fibroblast Basal Medium) supplemented with 0.1% hFGF-B, insulin, GA-1000, and 2% FBS at 37 °C in a 5% CO2 incubator. Subculture was performed every 2 to 3 days.
NHDF cells were seeded at 2.0×10^4 cells/well in a 24-well plate and incubated for 24 hours at 37 °C in a 5% CO2 incubator. After incubation, the culture medium was replaced with serum-free FBM, and the peptide prepared in the above Example was applied at concentrations of 1-100 μM, followed by incubation for 24 hours. The supernatant from each experimental group was collected, and the amount of procollagen released into the medium was measured. The positive control group was treated with ascorbic acid at a concentration of 0.001 v/v %. Measurement of procollagen levels was performed using a Procollagen Type I Peptide (PIP) EIA Kit (Takara Biomedical Co.) according to the manufacturer's protocol. The quantitative results of procollagen type I peptide production following treatment with the peptide of the Example are shown in Table 3 and FIG. 4.

[2] = Cytotoxicity Evaluation in Macrophages (EZ-Cytox Assay); assay type: cell-based; details: mouse, positive control, LPS 1 μg/ml, RAW264.7 cells, control = 100, read-out: Cell viability (%)
Experimental: (§1) RAW264.7 macrophage cells were obtained from the American Type Culture Collection (ATCC) and cultured in Dulbecco's Modified Eagle's Medium (DMEM) containing 100 units/mL penicillin-streptomycin and 10% (v/v) fetal bovine serum (FBS) at 37 °C in a 5% CO2 incubator, and subculture was performed every 2 to 3 days.
The EZ-cytox assay is a representative method for measuring cell viability using the principle that water-soluble tetrazolium salts (WSTs) react with dehydrogenases of viable cells to produce a water-soluble orange formazan.
To evaluate cytotoxicity, RAW264.7 cells were seeded at 1.5×10^4 cells/well in a 96-well plate using DMEM supplemented with 10% FBS and incubated for 18 hours at 37 °C in a 5% CO2 incubator. The test samples were then applied to the cultured cells. After treatment, EZ-cytox was added to each well and incubated for 30 minutes under the same conditions. Absorbance was measured at 450 nm using a microplate reader. The mean absorbance values of each sample group were compared with the control group to determine cell viability.

[3] = test system: nitric oxide (NO) production; experiment: Inhibition of Nitric Oxide (NO) Production (griess reagent) in LPS-stimulated RAW264.7 cells; assay type: cell-based; details: 24 hours; for NO Production (%): LPS 1 μg/ml, relative to LPS control = 100
Experimental: as §1
RAW264.7 cells were seeded at 1.5×10^5 cells/well in a 24-well plate and incubated for 18 hours at 37 °C in a 5% CO2 incubator. The cells were then treated with the peptide prepared in the above Example at concentrations of 50-200 μM and incubated for 24 hours.
From each experimental group, 100 μL of the supernatant was collected into a 96-well plate, and 100 μL of griess reagent was added. The mixture was allowed to react at room temperature for 10 minutes, and absorbance was measured at 540 nm using a microplate reader. The positive control group was treated with 2 µM of 2-amino-4-methylpyridine (2-AM). The relative levels of NO production following the treatments described in the above Example, based on NO production induced by the stimulant (LPS), are shown in Table 1 and FIG. 2 below.

[4] = test system: hyaluronic acid production; experiment: Hyaluronic acid (HA) production in HaCaT cells (ELISA); assay type: cell-based, human
Experimental: The HaCaT human keratinocyte cell line was obtained from Cell Line Service GmbH (Germany). The cells were cultured in DMEM containing 1% penicillin-streptomycin and 10% fetal bovine serum (FBS) at 37 °C in a 5% CO2 incubator, and subculture was performed every 2 to 3 days.
HaCaT cells were seeded at 1.0×10^5 cells/well in a 24-well plate and incubated for 24 hours at 37 °C in a 5% CO2 incubator. After incubation, the culture medium was replaced with serum-free DMEM, and the peptide prepared in the above Example was applied at concentrations of 50-200 μM, followed by incubation for 24 hours.
The supernatant from each experimental group was collected, and the amount of hyaluronic acid (HA) released into the medium was measured. The positive control group was treated with N-acetylglucosamine at a concentration of 10 mM. Measurement of hyaluronic acid production was conducted using a Hyaluronic Acid ELISA Kit (Cusabio Biotechnology Co., Ltd.) following the manufacturer's protocol.

[5] = 50 μM, 24 hours, untreated group = 100
[6] = 100 μM, 24 hours, untreated group = 100

O=C1O[C@H]([C@@H](O)CO)C(O)=C1O [Asc. A, ascorbic acid, reference compound]
activity at 10 µg/mL ([1]; Homo sapiens, 24 h, 10 μg/mL, positive control, untreated group = 100): 176 ± 3.91%

Cc1ccnc(N)c1 [Example 2-AM, 2-amino-4-methylpyridine, reference compound]
viability at 10 µM [2]: 94.1 ± 1.76%

N[C@@H](Cc1ccc(O)cc1)C(=O)NCC(=O)N[C@@H](CO)C(=O)N[C@@H](CC(=O)O)C(=O)O [Example, Tyr-Gly-Ser-Asp] (H-YGSD-OH)
NO Production (%) ([3]; 50 μM): 101.55 ± 2.59%
NO Production (%) ([3]; 100 μM): 91.42 ± 4.58%
NO Production (%) ([3]; 200 μM): 86.51 ± 2.39%
NO production, result in words ([3]; 50-200 μM, LPS): inhibit NO production in a concentration-dependent manner
Hyaluronic acid production (%) [4, 5]: 105.1 ± 5.45%
Hyaluronic acid production (%) [4, 6]: 123.64 ± 0.81%
Hyaluronic acid production (%) ([4]; 200 μM, 24 hours, untreated group = 100): 132.68 ± 22.43%
hyaluronic acid production, result in words ([4]; 50-200 μM, 24 hours): increase in hyaluronic acid production
Procollagen production (%) ([1]; 1 μM, 24 hours, untreated group = 100): 103.47 ± 6.38%
Procollagen production (%) ([1]; 10 μM, 24 hours, untreated group = 100): 110.79 ± 5.44%
Procollagen production (%) [1, 5]: 121.67 ± 3.57%
Procollagen production (%) [1, 6]: 132.38 ± 1.24%
procollagen production, result in words ([1]; 1-100 μM, 24 hours): increase in procollagen production

CC(=O)N[C@H]1C(O)O[C@H](CO)[C@@H](O)[C@@H]1O (stereo partly shown) [NAG, N-acetylglucosamine, reference compound]
activity at 10000 µM ([4]; Homo sapiens, 24 h, 10 mM, positive control, untreated group = 100): 121 ± 10.4%
